Test results taken from paper PMC6757289, “Design and Characterization of SGK3-PROTAC1, an Isoform Specific SGK3 Kinase PROTAC Degrader” (ACS Chemical Biology, 2019).
Like-named read-outs stand apart in the source and are kept apart here.

Legend:
Experiment in all cases: kinase profiling panel
Type in all cases: biochemical
BTK = BTK (Homo sapiens, UniProt Q06187); conditions: read-out: % Activity Remaining
Text: (§1) Protein kinase profiling against a Dundee panel of 140 protein kinases was undertaken at the International Centre for Protein Kinase Profiling. The result for each kinase was presented as a mean kinase activity of the reaction taken in triplicate relative to a control sample treated with DMSO. Assay conditions and abbreviations are available at http://www.kinase-screen.mrc.ac.uk.

CHK2 = CHK2 (Homo sapiens, UniProt O96017); conditions: read-out: % Activity Remaining
Text: as §1

DAPK1 = DAPK1 (Homo sapiens, UniProt P53355); conditions: read-out: % Activity Remaining
Text: as §1

JNK1 = JNK1 (Homo sapiens, UniProt P45983); conditions: read-out: % Activity Remaining
Text: as §1

MKK6 = target: T1, MKK6 (Homo sapiens, UniProt P52564); conditions: read-out: % Activity Remaining
T1 sequence (P52564 1-334): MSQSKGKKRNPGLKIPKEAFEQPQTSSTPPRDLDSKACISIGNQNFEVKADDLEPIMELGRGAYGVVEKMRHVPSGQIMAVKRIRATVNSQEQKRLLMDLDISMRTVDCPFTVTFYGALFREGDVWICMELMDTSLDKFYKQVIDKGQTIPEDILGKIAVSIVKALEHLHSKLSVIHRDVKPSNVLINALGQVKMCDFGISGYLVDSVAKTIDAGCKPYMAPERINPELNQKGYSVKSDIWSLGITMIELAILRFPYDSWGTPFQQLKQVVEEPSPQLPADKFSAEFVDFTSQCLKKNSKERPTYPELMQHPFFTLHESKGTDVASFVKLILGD
Text: as §1

MSK1 = MSK1 (Homo sapiens, UniProt O75582); conditions: read-out: % Activity Remaining
Text: as §1

MST4 = MST4 (Homo sapiens, UniProt Q9P289); conditions: read-out: % Activity Remaining
Text: as §1

OSR1 = OSR1 (Homo sapiens, UniProt O95747); conditions: read-out: % Activity Remaining
Text: as §1

PAK5 = PAK5 (Homo sapiens, UniProt Q9P286); conditions: read-out: % Activity Remaining
Text: as §1

PLK1 = PLK1 (Homo sapiens, UniProt P53350); conditions: read-out: % Activity Remaining
Text: as §1

STK33 = STK33 (Homo sapiens, UniProt Q9BYT3)
Text: as §1

TAK1 = target: T2, TAK1 (Homo sapiens, UniProt O43318); conditions: read-out: % Activity Remaining
T2 sequence (O43318 1-303 limits assumed): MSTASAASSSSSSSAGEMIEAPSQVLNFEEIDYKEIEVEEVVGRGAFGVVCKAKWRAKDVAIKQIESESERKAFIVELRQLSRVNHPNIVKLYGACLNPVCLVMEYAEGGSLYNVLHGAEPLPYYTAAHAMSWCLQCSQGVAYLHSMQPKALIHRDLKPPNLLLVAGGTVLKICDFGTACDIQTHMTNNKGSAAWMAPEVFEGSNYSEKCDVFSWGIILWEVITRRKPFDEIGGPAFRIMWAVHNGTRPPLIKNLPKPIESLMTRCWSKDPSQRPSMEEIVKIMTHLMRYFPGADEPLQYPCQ
Text: as §1

TBK1 = target: T3, TBK1 (Homo sapiens, UniProt Q9UHD2); conditions: read-out: % Activity Remaining
T3 sequence (Q9UHD2 1-729): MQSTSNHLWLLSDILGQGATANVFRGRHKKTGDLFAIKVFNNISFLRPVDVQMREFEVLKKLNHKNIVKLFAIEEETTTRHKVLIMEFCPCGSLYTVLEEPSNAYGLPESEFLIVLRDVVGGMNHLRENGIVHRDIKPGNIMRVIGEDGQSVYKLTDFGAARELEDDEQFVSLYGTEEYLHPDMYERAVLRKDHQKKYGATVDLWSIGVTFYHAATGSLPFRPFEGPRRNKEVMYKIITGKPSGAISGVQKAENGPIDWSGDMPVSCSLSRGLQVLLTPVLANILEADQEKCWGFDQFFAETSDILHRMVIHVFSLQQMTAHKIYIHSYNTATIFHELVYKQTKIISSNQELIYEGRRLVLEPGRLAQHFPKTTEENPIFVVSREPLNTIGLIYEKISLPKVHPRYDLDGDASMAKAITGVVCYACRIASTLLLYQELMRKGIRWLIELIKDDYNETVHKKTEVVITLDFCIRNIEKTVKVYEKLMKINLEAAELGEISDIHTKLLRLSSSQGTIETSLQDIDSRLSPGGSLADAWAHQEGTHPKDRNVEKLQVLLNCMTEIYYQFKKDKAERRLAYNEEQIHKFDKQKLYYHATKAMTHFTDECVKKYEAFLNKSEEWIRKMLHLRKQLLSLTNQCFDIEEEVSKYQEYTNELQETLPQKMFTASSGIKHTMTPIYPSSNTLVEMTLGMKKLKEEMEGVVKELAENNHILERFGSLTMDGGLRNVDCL
Text: as §1

YES1 = YES1 (Homo sapiens, UniProt P07947); conditions: read-out: % Activity Remaining
Text: as §1

YES1, sequence (P07947 whole entry): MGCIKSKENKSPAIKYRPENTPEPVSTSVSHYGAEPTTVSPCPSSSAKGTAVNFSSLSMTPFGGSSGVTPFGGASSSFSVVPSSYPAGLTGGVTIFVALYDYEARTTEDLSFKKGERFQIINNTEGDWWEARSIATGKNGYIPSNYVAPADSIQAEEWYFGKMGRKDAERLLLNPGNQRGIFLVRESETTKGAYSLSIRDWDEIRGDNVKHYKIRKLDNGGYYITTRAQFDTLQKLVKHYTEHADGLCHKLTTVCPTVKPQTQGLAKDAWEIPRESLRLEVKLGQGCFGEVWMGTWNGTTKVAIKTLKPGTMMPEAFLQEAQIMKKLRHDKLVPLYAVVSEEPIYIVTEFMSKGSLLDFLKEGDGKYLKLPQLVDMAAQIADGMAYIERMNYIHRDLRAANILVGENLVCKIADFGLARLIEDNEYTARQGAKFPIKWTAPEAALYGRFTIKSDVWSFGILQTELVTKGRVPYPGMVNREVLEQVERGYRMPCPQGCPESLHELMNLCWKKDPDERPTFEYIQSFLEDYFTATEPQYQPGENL
JNK1, sequence (P45983 whole entry): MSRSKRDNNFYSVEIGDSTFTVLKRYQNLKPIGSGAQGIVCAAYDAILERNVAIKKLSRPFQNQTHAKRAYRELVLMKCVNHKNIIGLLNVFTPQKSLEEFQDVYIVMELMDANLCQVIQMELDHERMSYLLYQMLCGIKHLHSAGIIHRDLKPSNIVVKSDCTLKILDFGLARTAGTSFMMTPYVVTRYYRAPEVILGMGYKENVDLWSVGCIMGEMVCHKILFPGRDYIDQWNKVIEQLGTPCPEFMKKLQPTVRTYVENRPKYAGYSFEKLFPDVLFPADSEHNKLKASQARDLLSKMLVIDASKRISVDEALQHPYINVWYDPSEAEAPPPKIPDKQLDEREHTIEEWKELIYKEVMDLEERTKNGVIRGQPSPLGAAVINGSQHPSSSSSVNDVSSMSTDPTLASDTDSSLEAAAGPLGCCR
DAPK1, sequence (P53355 whole entry): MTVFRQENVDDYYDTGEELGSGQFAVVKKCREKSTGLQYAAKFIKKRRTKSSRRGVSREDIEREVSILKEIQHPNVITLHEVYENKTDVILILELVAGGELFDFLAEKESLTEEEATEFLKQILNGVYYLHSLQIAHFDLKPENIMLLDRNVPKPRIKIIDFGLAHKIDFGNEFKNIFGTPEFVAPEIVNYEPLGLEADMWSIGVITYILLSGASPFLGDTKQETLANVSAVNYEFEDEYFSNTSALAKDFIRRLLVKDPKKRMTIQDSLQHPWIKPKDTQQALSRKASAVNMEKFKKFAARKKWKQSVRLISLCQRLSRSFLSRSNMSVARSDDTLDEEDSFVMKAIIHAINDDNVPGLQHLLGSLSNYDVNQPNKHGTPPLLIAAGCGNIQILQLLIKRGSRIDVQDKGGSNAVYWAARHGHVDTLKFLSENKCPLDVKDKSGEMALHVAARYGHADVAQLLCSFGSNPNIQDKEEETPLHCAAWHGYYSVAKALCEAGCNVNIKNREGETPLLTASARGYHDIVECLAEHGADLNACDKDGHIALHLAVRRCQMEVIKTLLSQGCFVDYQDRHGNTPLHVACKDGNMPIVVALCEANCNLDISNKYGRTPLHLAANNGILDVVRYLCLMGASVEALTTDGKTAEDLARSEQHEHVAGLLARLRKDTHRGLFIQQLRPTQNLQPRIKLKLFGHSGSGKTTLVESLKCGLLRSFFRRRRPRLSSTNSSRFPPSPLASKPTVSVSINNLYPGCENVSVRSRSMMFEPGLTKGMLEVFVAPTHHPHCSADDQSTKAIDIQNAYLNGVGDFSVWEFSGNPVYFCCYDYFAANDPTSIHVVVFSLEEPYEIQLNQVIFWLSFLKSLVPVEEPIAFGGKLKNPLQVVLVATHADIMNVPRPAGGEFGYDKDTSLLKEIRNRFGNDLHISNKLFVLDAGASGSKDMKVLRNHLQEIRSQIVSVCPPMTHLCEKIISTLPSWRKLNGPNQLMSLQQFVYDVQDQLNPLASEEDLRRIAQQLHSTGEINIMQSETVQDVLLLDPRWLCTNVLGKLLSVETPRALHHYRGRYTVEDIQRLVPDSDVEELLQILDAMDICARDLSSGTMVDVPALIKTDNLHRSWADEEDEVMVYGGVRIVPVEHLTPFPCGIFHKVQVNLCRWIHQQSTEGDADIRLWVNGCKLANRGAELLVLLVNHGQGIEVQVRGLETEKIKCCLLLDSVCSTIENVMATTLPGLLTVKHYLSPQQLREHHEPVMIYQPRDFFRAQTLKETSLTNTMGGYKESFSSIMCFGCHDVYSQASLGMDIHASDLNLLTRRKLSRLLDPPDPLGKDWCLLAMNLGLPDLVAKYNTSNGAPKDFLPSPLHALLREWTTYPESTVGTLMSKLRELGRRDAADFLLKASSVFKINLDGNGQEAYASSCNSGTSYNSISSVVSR
OSR1, sequence (O95747 whole entry): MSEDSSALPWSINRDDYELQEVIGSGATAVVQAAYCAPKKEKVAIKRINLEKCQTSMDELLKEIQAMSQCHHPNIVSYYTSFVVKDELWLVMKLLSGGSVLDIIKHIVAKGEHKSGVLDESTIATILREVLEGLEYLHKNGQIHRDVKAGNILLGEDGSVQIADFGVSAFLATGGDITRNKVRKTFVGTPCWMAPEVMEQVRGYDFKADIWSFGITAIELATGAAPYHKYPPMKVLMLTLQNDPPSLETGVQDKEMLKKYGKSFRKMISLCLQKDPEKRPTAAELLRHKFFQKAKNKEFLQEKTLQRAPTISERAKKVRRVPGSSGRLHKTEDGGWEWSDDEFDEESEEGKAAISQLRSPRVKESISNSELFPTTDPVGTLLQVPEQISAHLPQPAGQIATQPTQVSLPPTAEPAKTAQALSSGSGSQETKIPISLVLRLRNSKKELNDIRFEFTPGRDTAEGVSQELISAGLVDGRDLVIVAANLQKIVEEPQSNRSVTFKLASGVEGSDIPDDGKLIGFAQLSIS
PAK5, sequence (Q9P286 whole entry): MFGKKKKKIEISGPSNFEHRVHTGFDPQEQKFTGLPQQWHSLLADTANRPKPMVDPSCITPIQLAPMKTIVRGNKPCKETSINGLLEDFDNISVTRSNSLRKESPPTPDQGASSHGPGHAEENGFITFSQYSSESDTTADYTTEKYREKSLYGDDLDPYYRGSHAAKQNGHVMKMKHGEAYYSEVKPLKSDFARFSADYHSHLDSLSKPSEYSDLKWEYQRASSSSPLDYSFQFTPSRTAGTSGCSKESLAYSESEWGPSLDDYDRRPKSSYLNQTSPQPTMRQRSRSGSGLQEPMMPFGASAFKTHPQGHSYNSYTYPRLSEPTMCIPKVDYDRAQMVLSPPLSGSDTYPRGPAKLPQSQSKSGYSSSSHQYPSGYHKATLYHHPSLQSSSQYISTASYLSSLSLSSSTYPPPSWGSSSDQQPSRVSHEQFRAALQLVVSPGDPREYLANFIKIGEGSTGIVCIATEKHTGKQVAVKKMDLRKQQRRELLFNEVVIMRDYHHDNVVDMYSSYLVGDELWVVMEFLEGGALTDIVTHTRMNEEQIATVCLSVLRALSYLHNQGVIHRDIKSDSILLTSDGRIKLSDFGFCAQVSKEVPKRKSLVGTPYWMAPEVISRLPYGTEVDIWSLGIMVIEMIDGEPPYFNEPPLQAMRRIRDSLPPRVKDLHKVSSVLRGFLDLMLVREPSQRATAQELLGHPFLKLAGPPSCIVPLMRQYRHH
PLK1, sequence (P53350 whole entry): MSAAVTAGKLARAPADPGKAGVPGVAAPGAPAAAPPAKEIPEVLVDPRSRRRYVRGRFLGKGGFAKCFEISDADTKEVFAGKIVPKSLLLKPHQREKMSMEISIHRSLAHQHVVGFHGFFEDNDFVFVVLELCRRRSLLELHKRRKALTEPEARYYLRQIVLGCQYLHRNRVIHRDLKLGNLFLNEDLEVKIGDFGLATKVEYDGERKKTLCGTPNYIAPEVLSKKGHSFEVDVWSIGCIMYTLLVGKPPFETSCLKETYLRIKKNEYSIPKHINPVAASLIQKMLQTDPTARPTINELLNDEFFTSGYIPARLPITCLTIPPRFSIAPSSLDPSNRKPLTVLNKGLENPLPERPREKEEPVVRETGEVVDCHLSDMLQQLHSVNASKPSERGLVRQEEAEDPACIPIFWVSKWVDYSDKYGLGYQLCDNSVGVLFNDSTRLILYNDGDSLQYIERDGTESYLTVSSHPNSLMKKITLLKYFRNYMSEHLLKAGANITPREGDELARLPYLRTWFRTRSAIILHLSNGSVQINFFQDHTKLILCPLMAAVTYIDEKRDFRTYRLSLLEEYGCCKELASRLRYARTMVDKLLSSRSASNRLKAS
STK33, sequence (Q9BYT3 whole entry): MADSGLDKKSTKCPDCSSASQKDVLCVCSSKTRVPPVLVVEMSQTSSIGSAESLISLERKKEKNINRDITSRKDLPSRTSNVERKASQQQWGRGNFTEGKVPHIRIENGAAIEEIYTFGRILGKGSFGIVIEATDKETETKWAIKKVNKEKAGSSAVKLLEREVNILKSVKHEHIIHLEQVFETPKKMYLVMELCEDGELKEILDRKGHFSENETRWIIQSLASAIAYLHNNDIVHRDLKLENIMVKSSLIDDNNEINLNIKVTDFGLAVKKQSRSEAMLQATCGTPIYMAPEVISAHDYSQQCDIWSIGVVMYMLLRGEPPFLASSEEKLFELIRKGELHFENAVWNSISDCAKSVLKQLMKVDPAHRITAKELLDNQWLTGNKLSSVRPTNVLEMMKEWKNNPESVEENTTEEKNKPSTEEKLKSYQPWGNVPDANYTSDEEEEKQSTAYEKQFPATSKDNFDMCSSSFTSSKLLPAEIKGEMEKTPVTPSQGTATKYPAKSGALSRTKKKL

Cc1ccc(F)c(S(=O)(=O)Nc2ccc(-c3nc(OC[C@H]4CN(CCCCCCOCCOCCOCC(=O)N[C@H](C(=O)N5C[C@H](O)C[C@H]5C(=O)NCc5ccc(-c6scnc6C)cc5)C(C)(C)C)CCO4)c4cn[nH]c4n3)cc2)c1 [SGK3-PROTAC1]
remaining activity at 1 µM (BTK; 1 µM): 97%
remaining activity at 1 µM (CHK2; 1 µM): 85%
remaining activity at 1 µM (DAPK1; 1 µM): 100%
remaining activity at 1 µM (JNK1; 1 µM): 117%
remaining activity at 1 µM (MKK6; 1 µM): 123%
remaining activity at 1 µM (MSK1; 1 µM): 50%
remaining activity at 1 µM (MST4; 1 µM): 106%
remaining activity at 1 µM (OSR1; 1 µM): 103%
remaining activity at 1 µM (PAK5; 1 µM): 88%
remaining activity at 1 µM (PLK1; 1 µM): 98%
remaining activity at 1 µM (STK33): 110%
remaining activity at 1 µM (TAK1; 1 µM): 108%
remaining activity at 1 µM (TBK1; 1 µM): 93%
remaining activity at 1 µM (YES1; 1 µM): 108%

Cc1ccc(F)c(S(=O)(=O)Nc2ccc(-c3nc(OC[C@H]4CNCCO4)c4cn[nH]c4n3)cc2)c1 [308-R, reference compound]
remaining activity at 1 µM (BTK): 59%
remaining activity at 1 µM (CHK2): 24%
remaining activity at 1 µM (DAPK1): 91%
remaining activity at 1 µM (JNK1): 112%
remaining activity at 1 µM (MKK6): 66%
remaining activity at 1 µM (MSK1): 7%
remaining activity at 1 µM (MST4): 98%
remaining activity at 1 µM (OSR1): 75%
remaining activity at 1 µM (PAK5): 83%
remaining activity at 1 µM (PLK1): 86%
remaining activity at 1 µM (STK33): 36%
remaining activity at 1 µM (TAK1): 74%
remaining activity at 1 µM (TBK1): 83%
remaining activity at 1 µM (YES1): 71%

COc1ccc(Cl)c(S(=O)(=O)Nc2ccc(-c3nc(OC[C@H]4CNCCO4)c4c(C)n[nH]c4n3)cc2)c1 [290-R, reference compound]
remaining activity at 1 µM (BTK): 91%
remaining activity at 1 µM (CHK2): 9%
remaining activity at 1 µM (DAPK1): 87%
remaining activity at 1 µM (JNK1): 101%
remaining activity at 1 µM (MKK6): 102%
remaining activity at 1 µM (MSK1): 10%
remaining activity at 1 µM (MST4): 50%
remaining activity at 1 µM (OSR1): 110%
remaining activity at 1 µM (PAK5): 110%
remaining activity at 1 µM (PLK1): 102%
remaining activity at 1 µM (STK33): 74%
remaining activity at 1 µM (TAK1): 101%
remaining activity at 1 µM (TBK1): 62%
remaining activity at 1 µM (YES1): 92%

Cc1ccc(F)c(S(=O)(=O)Nc2ccc(-c3nc(OC[C@H]4CN(CCCCCCOCCOCCOCC(=O)N[C@H](C(=O)N5C[C@@H](O)C[C@H]5C(=O)NCc5ccc(-c6scnc6C)cc5)C(C)(C)C)CCO4)c4cn[nH]c4n3)cc2)c1 [cisSGK3-PROTAC1]
remaining activity at 1 µM (BTK; 1 µM): 91%
remaining activity at 1 µM (CHK2; 1 µM): 99%
remaining activity at 1 µM (DAPK1; 1 µM): 108%
remaining activity at 1 µM (JNK1; 1 µM): 119%
remaining activity at 1 µM (MKK6; 1 µM): 108%
remaining activity at 1 µM (MSK1; 1 µM): 56%
remaining activity at 1 µM (MST4; 1 µM): 99%
remaining activity at 1 µM (OSR1; 1 µM): 118%
remaining activity at 1 µM (PAK5; 1 µM): 105%
remaining activity at 1 µM (PLK1; 1 µM): 98%
remaining activity at 1 µM (STK33): 109%
remaining activity at 1 µM (TAK1; 1 µM): 107%
remaining activity at 1 µM (TBK1; 1 µM): 111%
remaining activity at 1 µM (YES1; 1 µM): 105%
